Measured values from patent publication US10925854B2, “Methods and compositions for preventing or treating fatty liver, protecting liver function or ameliorating liver diseases caused by fatty liver or other associated disorders” (SINEW PHARMA INC., priority 2015, dated 2021).

Assays:
[1] = test system: B6 mice fed with high fat feed (fatty liver); assay: Liver histopathology (H&E) and NAS score in mice with induced fatty liver; type: in vivo; conditions: for large vesicular fat droplets within liver cells in liver tissue section: H&E sections, treatment for 4 weeks (FIG. 1); for effect on liver damages (NAS, in words): fatty liver mice
Procedure: (§1) B6 mice recommended in the specification “Method for evaluating the liver protection and health care efficacies of health food” announced by the Department of Health were chosen for animal testing. More than four (4) mice were used in each group of the pre-test, while more than twelve (12) mice were used in each group of the confirmatory test. Male mice bred at 23±2° C. in an animal room with 55±15% relative humidity under normal light/dark cycle (7:00 AM-7:00 PM lights on/7:00 PM-7:00 AM lights off) and weighing 18-23 g were purchased from BioLASCO (Taipei) and housed at Laboratory Animal Center in National Defense Medical Center. The animal test was carried out according to the guideline for animal experiment of National Health Research Institutes. Mice were fed with normal feed at 3-5 g/day and unlimited supply of water for 1-2 weeks and investigated for health condition. The weight of mice was recorded once a week.
(§2) The tested animals were grouped randomly into Blank, High Fat Diet control (HFD), Positive Control (PS), and Test group. The animals of Blank were fed with normal feed. The animals of HFD were fed with high fat feed. The animals of PS were fed with high fat feed, and additionally fed with silymarin (5 mg/kg/day) by a tube. The animals of Test group were fed with high fat feed, and additionally force-fed with test compounds by a tube.
(§3) The animals of Blank were fed casually with normal feed for 12 weeks, while the animals of HFD, PS, and Test group were fed casually with high fat feed for 12 weeks. After 8 weeks of feeding, the animals of Blank and HFD were fed with deionized water by a tube once a day; the animals of PS were fed with silymarin by a tube once a day; and the animals of Test Group were fed with test compounds by a tube once a day for a duration of 4 or 8 weeks.
At the end of the test, all mice were sacrificed. One tissue block with a volume of approximately 1 cm^3 was cut from the largest right lobe of liver, fixed in 10% neutral formalin, and then dehydrated and hyalinized in various concentrations of ethanol (30, 50, 70, 95, 99.5%) and xylene. Afterwards, xylene was replaced with hot paraffin solution. At last, the tissue was embedded with paraffin solution. The finished paraffin specimen was cut into 5 pun-thickness paraffin sections by the microtome. The sections were pasted on clean slides, dried at 37° C., and then stained by H&E staining.
Liver tissue sections were deparaffinized in xylene for 30 minutes, and then successively rehydrated in 99.5%, 95%, 70%, 50%, and 30% ethanol for 30 minutes, respectively. After being soaked in distilled water for 10 minutes, the sections could be stained. The sections were first immersed in hematoxylin for 30 seconds to stain cell nuclei, then washed with distilled water for a few minutes, stained with eosin for 2-5 minutes, and washed with distilled water for a few minutes again. […]
In order to observe the changes of lesion, fat accumulation, necrosis, or fibrosis in liver cells when there was an ongoing liver damage, liver tissues were H&E stained to evaluate the degree of liver fat accumulation. […] As for the assessment of semi-quantitative analysis in pathology, it had to be confirmed by a physician or a veterinary pathologist who conducted a double-blind analysis to score (NAS score)^16 and compare all the sections without knowing the test design. […]

[2] = test system: B6 mice fed with high fat feed (fatty liver); assay: Serum ALT and AST (liver dysfunction) in mice with induced fatty liver; type: in vivo
Procedure: as §1, §2, §3
Before testing and in the eighth (8th), twelfth (12th), and sixteenth (16th) week after testing, blood was collected from the cheek or the heart. At the end of testing, all mice were weighted and then sacrificed, and blood was collected from the cheek or the heart simultaneously. The blood specimens of mice was placed at room temperature for one hour to clot, and then the serum was separated by centrifugation in a refrigeration centrifuge at 15,700×g at 4° C. for 5 minutes. Afterwards, biochemical indices of liver function, including aspartate transaminase (AST), alanine aminotransferase (ALT), triglyceride (TG), total cholesterol (TCHO/TC), low-density lipoprotein cholesterol (LDL-C), and high-density lipoprotein cholesterol (HDL-C), were detected by the automatic blood biochemistry analyzer.

[3] = test system: B6 mice fed with high fat feed (fatty liver); assay: Liver antioxidant capacity (Gpx, GSH, Grd, SOD) in mice with induced fatty liver; type: in vivo; conditions: for effect on liver antioxidant activity (in words): fatty liver mice
Procedure: as §1, §2, §3
About 0.1 g of liver tissue was taken from the sacrificed animal and homogenized by centrifuge with a biomasher for 10 minutes. A 9-fold weight (w/w) of buffer (pH 7.4, 50 mmol/L Tris-HCl, 180 mmol/L KCl) was added to the homogenized tissue, which was then mixed well by a Vortex mixer for subsequent use. The resulting homogenization solution samples of liver tissue was used for the analysis of various members of liver antioxidant systems, including glutathione peroxidase (GPx), glutathione (GSH), glutathione reductase (Grd), and superoxide dismutase (SOD). Methods of related analysis can be found in the known literatures, for example, the draft of “Method for evaluating the liver protection and health care efficacies of health food” announced by the Ministry of Health and Welfare, Taiwan.

[4] = test system: HepG2 fatty liver cells (induced with oleic acid); assay: Reduction of TG content in oleic acid-induced HepG2 fatty liver cells; type: cell-based, human; conditions: Homo sapiens, 72 h; tested substances 1.0 uM, fatty liver cells from HepG2; read-out: TG reduction rate
Procedure: The activity of the various compounds of the present invention in reduction of fat content was analyzed by using human hepatoma cell line Hep G2.
HepG2 cell lines (15×10^6 cells) were cultured in DMEM culture No. B, incubated in an incubator with 5% CO2 at 37° C. for 24 hours, cultured in DMEM culture No. C (serum-free medium) for 24 hours, and finally cultured in DMEM culture No. D (containing oleate/albumin complex) for another 48 hours to induce HepG2 cell lines to form fatty liver cells.
HepG2 cell lines were divided into six groups, including: (1) Blank: no treatment; (2) DMSO group: cells from Blank were treated with dimethyl sulfoxide (DMSO); (3) Control: induction with oleic acid to form fatty liver cells; (4) Vehicle group: fatty liver cells formed by induction with oleic acid were treated with DMSO; (5) Positive control: fatty liver cells were treated with silymarin; and (6) Test Group: fatty liver cells were treated with various compounds of the present invention.
After incubation for 72 hours, the treated cells from each group were successively washed twice with PBS, and then incubated with 0.5 ml of trypsin/EDTA for 3 minutes. Afterwards, the cells were scraped with 2 ml of PBS and then transferred to the centrifuge tube to be shattered by ultrasonic. 20 μl of the cell extracts was taken to determine the content of protein. TG determination was performed using commercially available combination of agents (Randox). The TG content obtained above was divided by the protein content to obtain a ratio, representing a relative TG content in the cells.
The equation for calculating reduction rate (%) of TG was as follows: [1−(TG content of Test Group−TG content of Blank)/(TG content of Oleic acid induction Group−TG content of Blank)]×100%.

[5] = test system: B6 mice fed with high fat feed (fatty liver); assay: Liver lipids (TG, TC in liver) in mice with induced fatty liver; type: in vivo
Procedure: as §1, §2, §3
In addition, abdominal fat and liver specimens were taken from the abdomens of sacrificed mice and weighted to compare the weight of fat and liver and obtain a ratio of liver weight to body weight. Two tissue blocks with a volume of approximately 1 cm^3 were cut from the largest right lobe of liver, fixed in 10% neutral formalin solution, and then embedded with paraffin for sectioning and H&E staining for histopathological observation. Moreover, the rest of the liver was frozen for preservation and detection of the contents of triglyceride and total cholesterol in the liver. Furthermore, the liver function of animals of each group were analyzed by Galactose Single Point Method, which was recognized and recommended for quantification of remaining liver function in clinical use by U.S. FDA and Ministry of Health and Welfare, Taiwan. At the end of the tests, 0.5 g of galactose (G.S.P.® 0.4 g/mL) per kg of animal was administered via intravenous. One hour after the administration, about 0.5 ml of whole blood was taken by using a filter paper to evaluate liver function of mice. The higher the value of GSP was, the worse the remaining liver function would be (FDA: “Guidance for Industry: Pharmacokinetics in Patients with Impaired. Hepatic Function—Study Design, Data Analysis and Impact on Dosing and. Labeling. 2003).

[6] = Abdominal fat weight, liver weight and increase of body weight in high fat feed mice; type: in vivo, B6 mice; conditions: fatty liver mice
Procedure: as §1, §2
The animals of Blank were fed casually with normal feed for 12 weeks, while the animals of HFD, PS, and Test group were fed casually with high fat feed for 12 weeks. […]
In addition, abdominal fat and liver specimens were taken from the abdomens of sacrificed mice and weighted to compare the weight of fat and liver and obtain a ratio of liver weight to body weight. […] Furthermore, the liver function of animals of each group were analyzed by Galactose Single Point Method, which was recognized and recommended for quantification of remaining liver function in clinical use by U.S. FDA and Ministry of Health and Welfare, Taiwan. […]

SMILES	large vesicular fat droplets within liver cells in liver tissue section [1]	effect on liver damages (NAS, in words) [1]	effect on ALT and AST values (in words) [2]	effect on liver antioxidant activity (in words) [3]	inhibition at 1 µM [4] [%]	effect on TC in liver (in words) [5]	effect on TG in liver (in words) [5]	effect on weight of abdominal fat (in words) [6]	Gpx, GSH, Grd, and SOD levels (in words) ([3]; 4-week treatment)
O=C1C[C@@H](c2ccc(O)c(O)c2)Oc2cc(O)cc(O)c21 [eriodictyol]	significantly reduced	can significantly reduce liver damages	can significantly reduce ALT and AST values	can significantly enhance antioxidant activity	35.1 ± 0.87	reduces TC in liver significantly	reduces TG in liver significantly	–	–
OC[C@@H](O)[C@@H](O)[C@H](O)[C@H](O)CO [mannitol]	significantly reduced	can significantly reduce liver damages	can significantly reduce ALT and AST values	can significantly enhance antioxidant activity	22.4 ± 5.74	reduces TC in liver significantly	reduces TG in liver significantly	reduces the weight of abdominal fat in animals significantly	substantial increases
CC1CCC(C(C)C)C(O)C1 (stereo not drawn) [menthol]	significantly reduced	–	can significantly reduce ALT and AST values	–	66.2 ± 1.87	reduces TC in liver significantly	reduces TG in liver significantly	reduces the weight of abdominal fat in animals significantly	–
OC[C@H]1O[C@H](O[C@]2(CCl)O[C@H](CCl)[C@@H](O)[C@@H]2O)[C@H](O)[C@@H](O)[C@H]1Cl [sucralose]	–	–	can significantly reduce ALT and AST values	–	26.7 ± 2.93	reduces TC in liver significantly	reduces TG in liver significantly	reduces the weight of abdominal fat in animals significantly	–
